Test results as given in the NIST ThermoML archive (doi:10.1021/je060271a).
Numbers after ± are expanded uncertainties.

Conditions: 283.15 K, Liquid, Vibrating tube method

## CCCCC(=O)OCC(COC(=O)CCCC)(COC(=O)CCCC)COC(=O)CCCC [pentaerythritol tetrapentanoate]
5629.7 kPa
  mass density: 1030.4 ± 1.2 kg/m3
5659.1 kPa
  mass density: 1030.3 ± 1.2 kg/m3
5688.1 kPa
  mass density: 1030.4 ± 1.2 kg/m3
5723.9 kPa
  mass density: 1030.4 ± 1.2 kg/m3
5754.6 kPa
  mass density: 1030.5 ± 1.2 kg/m3
5779.1 kPa
  mass density: 1030.6 ± 1.2 kg/m3
5803 kPa
  mass density: 1030.5 ± 1.2 kg/m3
5832 kPa
  mass density: 1030.5 ± 1.2 kg/m3
5856.1 kPa
  mass density: 1030.5 ± 1.2 kg/m3
5881 kPa
  mass density: 1030.5 ± 1.2 kg/m3
5906.4 kPa
  mass density: 1030.5 ± 1.2 kg/m3
5936.8 kPa
  mass density: 1030.5 ± 1.2 kg/m3
5961.9 kPa
  mass density: 1030.6 ± 1.2 kg/m3
5987.7 kPa
  mass density: 1030.6 ± 1.2 kg/m3
6018.4 kPa
  mass density: 1030.5 ± 1.2 kg/m3
6044.4 kPa
  mass density: 1030.6 ± 1.2 kg/m3
6070.3 kPa
  mass density: 1030.6 ± 1.2 kg/m3
6097.3 kPa
  mass density: 1030.6 ± 1.2 kg/m3
6128.9 kPa
  mass density: 1030.6 ± 1.2 kg/m3
6155.9 kPa
  mass density: 1030.8 ± 1.2 kg/m3
6188.9 kPa
  mass density: 1030.7 ± 1.2 kg/m3
6217.1 kPa
  mass density: 1030.7 ± 1.2 kg/m3
6245.2 kPa
  mass density: 1030.6 ± 1.2 kg/m3
6273.6 kPa
  mass density: 1030.7 ± 1.2 kg/m3
6301.9 kPa
  mass density: 1030.7 ± 1.2 kg/m3
6336.3 kPa
  mass density: 1030.8 ± 1.2 kg/m3
6365.5 kPa
  mass density: 1030.8 ± 1.2 kg/m3
6395.6 kPa
  mass density: 1030.8 ± 1.2 kg/m3
6431.7 kPa
  mass density: 1030.9 ± 1.2 kg/m3
6462.7 kPa
  mass density: 1030.8 ± 1.2 kg/m3
6491.7 kPa
  mass density: 1030.9 ± 1.2 kg/m3
6519.4 kPa
  mass density: 1030.9 ± 1.2 kg/m3
6542.3 kPa
  mass density: 1030.9 ± 1.2 kg/m3
6565.5 kPa
  mass density: 1031 ± 1.2 kg/m3
6593.5 kPa
  mass density: 1031.1 ± 1.2 kg/m3
6616.8 kPa
  mass density: 1031 ± 1.2 kg/m3
6640.3 kPa
  mass density: 1031 ± 1.2 kg/m3
6668.5 kPa
  mass density: 1031 ± 1.2 kg/m3
6692.7 kPa
  mass density: 1031 ± 1.2 kg/m3
6717.5 kPa
  mass density: 1031.1 ± 1.2 kg/m3
6741.9 kPa
  mass density: 1031 ± 1.2 kg/m3
6771.1 kPa
  mass density: 1031.1 ± 1.2 kg/m3
6796.3 kPa
  mass density: 1031.1 ± 1.2 kg/m3
6820.7 kPa
  mass density: 1031 ± 1.2 kg/m3
6850.6 kPa
  mass density: 1031 ± 1.2 kg/m3
6876.8 kPa
  mass density: 1031.1 ± 1.2 kg/m3
6902.9 kPa
  mass density: 1031.1 ± 1.2 kg/m3
6929.7 kPa
  mass density: 1031.2 ± 1.2 kg/m3
6961.3 kPa
  mass density: 1031.2 ± 1.2 kg/m3
6989.3 kPa
  mass density: 1031.2 ± 1.2 kg/m3
7017.1 kPa
  mass density: 1031.2 ± 1.2 kg/m3
7043.5 kPa
  mass density: 1031.2 ± 1.2 kg/m3
7061.5 kPa
  mass density: 1031.2 ± 1.2 kg/m3
7079.3 kPa
  mass density: 1031.1 ± 1.2 kg/m3
7097.4 kPa
  mass density: 1031.2 ± 1.2 kg/m3
7118.7 kPa
  mass density: 1031.2 ± 1.2 kg/m3
7234.2 kPa
  mass density: 1031.4 ± 1.2 kg/m3
7256.3 kPa
  mass density: 1031.3 ± 1.2 kg/m3
7276 kPa
  mass density: 1031.3 ± 1.2 kg/m3
7295 kPa
  mass density: 1031.3 ± 1.2 kg/m3
7315.5 kPa
  mass density: 1031.4 ± 1.2 kg/m3
7334.8 kPa
  mass density: 1031.4 ± 1.2 kg/m3
7354.5 kPa
  mass density: 1031.4 ± 1.2 kg/m3
7377.5 kPa
  mass density: 1031.5 ± 1.2 kg/m3
7396.8 kPa
  mass density: 1031.4 ± 1.2 kg/m3
7420.6 kPa
  mass density: 1031.4 ± 1.2 kg/m3
7440.5 kPa
  mass density: 1031.5 ± 1.2 kg/m3
7460.5 kPa
  mass density: 1031.4 ± 1.2 kg/m3
7480.2 kPa
  mass density: 1031.4 ± 1.2 kg/m3
7504.4 kPa
  mass density: 1031.5 ± 1.2 kg/m3
7525.1 kPa
  mass density: 1031.4 ± 1.2 kg/m3
7592.3 kPa
  mass density: 1031.6 ± 1.2 kg/m3
7634.1 kPa
  mass density: 1031.5 ± 1.2 kg/m3
7655.5 kPa
  mass density: 1031.6 ± 1.2 kg/m3
7680.7 kPa
  mass density: 1031.4 ± 1.2 kg/m3
7702.1 kPa
  mass density: 1031.7 ± 1.2 kg/m3
7723.5 kPa
  mass density: 1031.5 ± 1.2 kg/m3
7745.1 kPa
  mass density: 1031.6 ± 1.2 kg/m3
7771 kPa
  mass density: 1031.6 ± 1.2 kg/m3
7792.7 kPa
  mass density: 1031.7 ± 1.2 kg/m3
7814.7 kPa
  mass density: 1031.6 ± 1.2 kg/m3
7836.8 kPa
  mass density: 1031.7 ± 1.2 kg/m3
7863.9 kPa
  mass density: 1031.6 ± 1.2 kg/m3
7886.1 kPa
  mass density: 1031.7 ± 1.2 kg/m3
7909.2 kPa
  mass density: 1031.7 ± 1.2 kg/m3
8005.6 kPa
  mass density: 1031.7 ± 1.2 kg/m3
8079.8 kPa
  mass density: 1031.9 ± 1.2 kg/m3
8132.6 kPa
  mass density: 1031.8 ± 1.2 kg/m3
8156.2 kPa
  mass density: 1031.8 ± 1.2 kg/m3
8209.7 kPa
  mass density: 1031.8 ± 1.2 kg/m3
8234 kPa
  mass density: 1031.8 ± 1.2 kg/m3
8258.7 kPa
  mass density: 1031.9 ± 1.2 kg/m3
8283.5 kPa
  mass density: 1031.9 ± 1.2 kg/m3
8312.9 kPa
  mass density: 1031.9 ± 1.2 kg/m3
8337.9 kPa
  mass density: 1031.8 ± 1.2 kg/m3
8363.2 kPa
  mass density: 1031.9 ± 1.2 kg/m3
8393.6 kPa
  mass density: 1032 ± 1.2 kg/m3
8418.8 kPa
  mass density: 1032.2 ± 1.2 kg/m3
8444.3 kPa
  mass density: 1031.9 ± 1.2 kg/m3
8474.7 kPa
  mass density: 1032 ± 1.2 kg/m3
8501.2 kPa
  mass density: 1032.1 ± 1.2 kg/m3
8527.8 kPa
  mass density: 1032 ± 1.2 kg/m3
8554.5 kPa
  mass density: 1032 ± 1.2 kg/m3
8586.3 kPa
  mass density: 1032.1 ± 1.2 kg/m3
8612.5 kPa
  mass density: 1032 ± 1.2 kg/m3
8644.9 kPa
  mass density: 1032.2 ± 1.2 kg/m3
8671.8 kPa
  mass density: 1032.2 ± 1.2 kg/m3
8698.7 kPa
  mass density: 1032.2 ± 1.2 kg/m3
8726 kPa
  mass density: 1032.1 ± 1.2 kg/m3
8759.1 kPa
  mass density: 1032 ± 1.2 kg/m3
8787 kPa
  mass density: 1032.2 ± 1.2 kg/m3
8815 kPa
  mass density: 1032.2 ± 1.2 kg/m3
8848.6 kPa
  mass density: 1032.3 ± 1.2 kg/m3
8877 kPa
  mass density: 1032.2 ± 1.2 kg/m3
8906.3 kPa
  mass density: 1032.3 ± 1.2 kg/m3
8934.4 kPa
  mass density: 1032.3 ± 1.2 kg/m3
8969.3 kPa
  mass density: 1032.3 ± 1.2 kg/m3
8998.4 kPa
  mass density: 1032.4 ± 1.2 kg/m3
9027.7 kPa
  mass density: 1032.3 ± 1.2 kg/m3
9092.4 kPa
  mass density: 1032.4 ± 1.2 kg/m3
9158.9 kPa
  mass density: 1032.3 ± 1.2 kg/m3
9189.8 kPa
  mass density: 1032.4 ± 1.2 kg/m3
9220.8 kPa
  mass density: 1032.6 ± 1.2 kg/m3
9257.3 kPa
  mass density: 1032.5 ± 1.2 kg/m3
9288.4 kPa
  mass density: 1032.5 ± 1.2 kg/m3
9320.3 kPa
  mass density: 1032.4 ± 1.2 kg/m3
9599.3 kPa
  mass density: 1032.6 ± 1.2 kg/m3
9632.7 kPa
  mass density: 1032.7 ± 1.2 kg/m3
9666.3 kPa
  mass density: 1032.8 ± 1.2 kg/m3
9707.5 kPa
  mass density: 1032.7 ± 1.2 kg/m3
9743 kPa
  mass density: 1032.7 ± 1.2 kg/m3
9779.3 kPa
  mass density: 1032.7 ± 1.2 kg/m3
9813.6 kPa
  mass density: 1032.9 ± 1.2 kg/m3
9848.6 kPa
  mass density: 1032.9 ± 1.2 kg/m3
9891.1 kPa
  mass density: 1032.8 ± 1.2 kg/m3
9926.8 kPa
  mass density: 1032.8 ± 1.2 kg/m3
9963 kPa
  mass density: 1032.8 ± 1.2 kg/m3
10006 kPa
  mass density: 1032.8 ± 1.2 kg/m3
10044 kPa
  mass density: 1032.9 ± 1.2 kg/m3
10125 kPa
  mass density: 1032.9 ± 1.2 kg/m3
10200 kPa
  mass density: 1033.1 ± 1.2 kg/m3
10248 kPa
  mass density: 1033 ± 1.2 kg/m3
10286 kPa
  mass density: 1033 ± 1.2 kg/m3
10324 kPa
  mass density: 1033.1 ± 1.2 kg/m3
10363 kPa
  mass density: 1033 ± 1.2 kg/m3
10410 kPa
  mass density: 1033.1 ± 1.2 kg/m3
10449 kPa
  mass density: 1033.2 ± 1.2 kg/m3
10489 kPa
  mass density: 1033.1 ± 1.2 kg/m3
10537 kPa
  mass density: 1033.2 ± 1.2 kg/m3
10577 kPa
  mass density: 1033.2 ± 1.2 kg/m3
10619 kPa
  mass density: 1033.3 ± 1.2 kg/m3
10668 kPa
  mass density: 1033.3 ± 1.2 kg/m3
10710 kPa
  mass density: 1033.4 ± 1.2 kg/m3
10753 kPa
  mass density: 1033.3 ± 1.2 kg/m3
10805 kPa
  mass density: 1033.3 ± 1.2 kg/m3
10848 kPa
  mass density: 1033.4 ± 1.2 kg/m3
10894 kPa
  mass density: 1033.3 ± 1.2 kg/m3
10948 kPa
  mass density: 1033.3 ± 1.2 kg/m3
10990 kPa
  mass density: 1033.4 ± 1.2 kg/m3
11025 kPa
  mass density: 1033.4 ± 1.2 kg/m3
